Experimental data published in the supplement of paper PMC11061612.

What was measured:
Test in all cases: combination Emax (second highest fraction inhibited in the dose matrix, 72 h); higher = more inhibition; extreme values may be limits of the assay
[1] = tested on: BALL-1 (B-Lymphoblastic Leukemia)
In short: (§1)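 Bliss excess equals the observed combination effect minus the expected value EA + EB − EA·EB, where EA and EB are the effects of each agent alone. Combination Emax is the second-highest inhibition within the matrix. Inhibition was scaled from CellTiter-Glo 2.0 luminescence, with 0 set by vehicle wells and 1 by blank wells, after 72 hours of two-drug dosing of cells plated in 1536-well plates.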

[2] = tested on: PANC-02-03 (Pancreatic Carcinoma)
In short: as §1

[3] = tested on: KYSE-70 (Esophageal Squamous Cell Carcinoma)
In short: as §1

HuO-3N1 (Osteosarcoma) = tested on: HuO-3N1 (Osteosarcoma)
In short: as §1

[4] = tested on: CML-T1 (Chronic Myelogenous Leukemia)
In short: as §1

[5] = tested on: AN3-CA (Endometrial Carcinoma)
In short: as §1

[6] = tested on: NCI-H1563 (Lung Adenocarcinoma)
In short: as §1

KYM-1 (Rhabdomyosarcoma) = tested on: KYM-1 (Rhabdomyosarcoma)
In short: as §1

[7] = tested on: SNU-175 (Colorectal Carcinoma)
In short: as §1

[8] = tested on: EB-3 (Burkitt's Lymphoma)
In short: as §1

CHL-1 (Melanoma) = tested on: CHL-1 (Melanoma)
In short: as §1

[9] = tested on: NKM-1 (Acute Myeloid Leukemia)
In short: as §1

[10] = tested on: Becker (Low Grade Glioma)
In short: as §1

[11] = tested on: RERF-LC-KJ (Lung Adenocarcinoma)
In short: as §1

[12] = tested on: NCI-H196 (Small Cell Lung Carcinoma)
In short: as §1

[13] = tested on: RL95-2 (Endometrial Carcinoma)
In short: as §1

[14] = tested on: COLO-684 (Endometrial Carcinoma)
In short: as §1

[15] = tested on: RMG-I (Ovarian Carcinoma)
In short: as §1

[16] = tested on: NCI-H1623 (Lung Adenocarcinoma)
In short: as §1

[17] = tested on: PC-14 (Lung Adenocarcinoma)
In short: as §1

Question: For `CN(C)CCCOc1ccc(-c2ccc3ncc4c(c3c2)n(C2CCOCC2)c(=O)n4C)cn1` [AZD0156] + O=C(c1cc(Cc2n[nH]c(=O)c3ccccc23)ccc1F)N1CCN(C(=O)C2CC2)CC1 [Olaparib] (first compound max 3 µM, partner max 3 µM), which “combination Emax” value [1] is on record?
Answer: 0.79

Question: What about the “combination Emax” value [2] of the same molecule?
Answer: 0.248

Question: And the “combination Emax” value [3]?
Answer: 0.123

Question: And the “combination Emax” value (HuO-3N1 (Osteosarcoma))?
Answer: 0.289

Question: And the “combination Emax” value [4]?
Answer: 0.688

Question: And the “combination Emax” value [5]?
Answer: 0.352

Question: What about the “combination Emax” value [6] of the same molecule?
Answer: 0.246

Question: What about the “combination Emax” value (KYM-1 (Rhabdomyosarcoma)) of the same molecule?
Answer: 0.583

Question: And the “combination Emax” value [7]?
Answer: 0.553

Question: And the “combination Emax” value [8]?
Answer: 0.568

Question: What about the “combination Emax” value (CHL-1 (Melanoma)) of the same molecule?
Answer: 0.186

Question: And the “combination Emax” value [9]?
Answer: 0.585

Question: What about the “combination Emax” value [10] of the same molecule?
Answer: 0.247

Question: What about the “combination Emax” value [11] of the same molecule?
Answer: 0.368

Question: What about the “combination Emax” value [12] of the same molecule?
Answer: 0.145

Question: And the “combination Emax” value [13]?
Answer: 0.384

Question: And the “combination Emax” value [14]?
Answer: 0.307

Question: What about the “combination Emax” value [15] of the same molecule?
Answer: 0.29

Question: What about the “combination Emax” value [16] of the same molecule?
Answer: 0.333

Question: What about the “combination Emax” value [17] of the same molecule?
Answer: 0.236

Question: What does the source list for `CN(C)CCCOc1ccc(-c2ccc3ncc4c(c3c2)n(C2CCOCC2)c(=O)n4C)cn1` [AZD0156] + C[C@@H]1COCCN1C2=NC(=NC(=C2)C3(CC3)[S@](=N)(=O)C)C4=C5C=CNC5=NC=C4 [AZD6738] (first compound max 1 µM, 7x7, partner max 10 µM)?
Answer: combination Emax [1]: 0.986; combination Emax [2]: 0.579; combination Emax [3]: 0.397; combination Emax (HuO-3N1 (Osteosarcoma)): 0.299; combination Emax [4]: 0.927; combination Emax [5]: 0.491; combination Emax [6]: 0.385; combination Emax (KYM-1 (Rhabdomyosarcoma)): 0.786; combination Emax [7]: 0.49; combination Emax [8]: 0.763; combination Emax (CHL-1 (Melanoma)): 0.798; combination Emax [9]: 0.814; combination Emax [10]: 0.579; combination Emax [11]: 0.225; combination Emax [12]: 0.292; combination Emax [13]: 0.551; combination Emax [14]: 0.812; combination Emax [15]: 0.528; combination Emax [16]: 0.675; combination Emax [17]: 0.828

Question: With `Cc1c2c(nn1C)CSCc1cc(n(C)n1)CSc1cc(c3ccccc3c1)OCCCc1c(C(=O)O)n(C)c3c-2c(Cl)ccc13` [AZD5991] + Cc1cc2ncnn2cc1Nc1ncc2c(n1)n(C1CCOCC1)c(=O)n2C [AZD7648] (first compound max 1 µM, 7x7, partner max 10 µM) as the molecule, how does the “combination Emax” value [1] read?
Answer: 0.556

Question: What about the “combination Emax” value [2] of the same molecule?
Answer: 0.183

Question: What about the “combination Emax” value [3] of the same molecule?
Answer: 0.159

Question: What about the “combination Emax” value (HuO-3N1 (Osteosarcoma)) of the same molecule?
Answer: 0.85

Question: What about the “combination Emax” value [4] of the same molecule?
Answer: 0.332

Question: And the “combination Emax” value [5]?
Answer: 0.654

Question: And the “combination Emax” value [6]?
Answer: 0.701

Question: And the “combination Emax” value (KYM-1 (Rhabdomyosarcoma))?
Answer: 0.265

Question: What about the “combination Emax” value [7] of the same molecule?
Answer: 0.461

Question: And the “combination Emax” value [8]?
Answer: 0.456

Question: What about the “combination Emax” value (CHL-1 (Melanoma)) of the same molecule?
Answer: 0.346

Question: What about the “combination Emax” value [9] of the same molecule?
Answer: 0.984

Question: And the “combination Emax” value [10]?
Answer: 0.177

Question: What about the “combination Emax” value [11] of the same molecule?
Answer: 0.48

Question: And the “combination Emax” value [12]?
Answer: 0.219

Question: And the “combination Emax” value [13]?
Answer: 0.999

Question: And the “combination Emax” value [14]?
Answer: 0.315

Question: What about the “combination Emax” value [15] of the same molecule?
Answer: 0.344

Question: And the “combination Emax” value [16]?
Answer: 0.952

Question: What about the “combination Emax” value [17] of the same molecule?
Answer: 0.27

Question: With `Cc1cc2ncnn2cc1Nc1ncc2c(n1)n(C1CCOCC1)c(=O)n2C` [AZD7648] + CN(C)CCCOc1ccc(-c2ccc3ncc4c(c3c2)n(C2CCOCC2)c(=O)n4C)cn1 [AZD0156] (first compound max 10 µM, 7x7, partner max 1 µM) as the molecule, how does the “combination Emax” value [1] read?
Answer: 0.295

Question: What about the “combination Emax” value [2] of the same molecule?
Answer: 0.236

Question: What about the “combination Emax” value [3] of the same molecule?
Answer: 0.211

Question: What about the “combination Emax” value (HuO-3N1 (Osteosarcoma)) of the same molecule?
Answer: 0.369

Question: And the “combination Emax” value [4]?
Answer: 0.388

Question: And the “combination Emax” value [5]?
Answer: 0.321

Question: And the “combination Emax” value [6]?
Answer: 0.49

Question: What about the “combination Emax” value (KYM-1 (Rhabdomyosarcoma)) of the same molecule?
Answer: 0.165

Question: What about the “combination Emax” value [7] of the same molecule?
Answer: 0.173

Question: And the “combination Emax” value [8]?
Answer: 0.585

Question: And the “combination Emax” value (CHL-1 (Melanoma))?
Answer: 0.253

Question: What about the “combination Emax” value [9] of the same molecule?
Answer: 0.384

Question: And the “combination Emax” value [10]?
Answer: 0.184

Question: And the “combination Emax” value [11]?
Answer: 0.314

Question: What about the “combination Emax” value [12] of the same molecule?
Answer: 0.203

Question: What about the “combination Emax” value [13] of the same molecule?
Answer: 0.246

Question: What about the “combination Emax” value [14] of the same molecule?
Answer: 0.28

Question: And the “combination Emax” value [15]?
Answer: 0.431

Question: What about the “combination Emax” value [16] of the same molecule?
Answer: 0.257

Question: And the “combination Emax” value [17]?
Answer: 0.28

Question: With `CC1(C)CCC(CN2CCN(c3ccc(C(=O)NS(=O)(=O)c4ccc(NCC5CCOCC5)c([N+](=O)[O-])c4)c(Oc4cnc5[nH]ccc5c4)c3)CC2)=C(c2ccc(Cl)cc2)C1` [Venetoclax] + C=CCn1c(=O)c2cnc(Nc3ccc(N4CCN(C)CC4)cc3)nc2n1-c1cccc(C(C)(C)O)n1 [AZD1775] (first compound max 1 µM, partner max 1 µM) as the molecule, how does the “combination Emax” value [1] read?
Answer: 1

Question: And the “combination Emax” value [2]?
Answer: 0.494

Question: What about the “combination Emax” value [3] of the same molecule?
Answer: 0.604

Question: What about the “combination Emax” value (HuO-3N1 (Osteosarcoma)) of the same molecule?
Answer: 0.386

Question: What about the “combination Emax” value [4] of the same molecule?
Answer: 1

Question: And the “combination Emax” value [5]?
Answer: 0.446

Question: What about the “combination Emax” value [6] of the same molecule?
Answer: 0.371

Question: And the “combination Emax” value (KYM-1 (Rhabdomyosarcoma))?
Answer: 0.314

Question: What about the “combination Emax” value [7] of the same molecule?
Answer: 0.553

Question: And the “combination Emax” value [8]?
Answer: 0.674

Question: What about the “combination Emax” value (CHL-1 (Melanoma)) of the same molecule?
Answer: 0.891

Question: And the “combination Emax” value [9]?
Answer: 0.995

Question: What about the “combination Emax” value [10] of the same molecule?
Answer: 0.76

Question: And the “combination Emax” value [11]?
Answer: 0.283

Question: And the “combination Emax” value [12]?
Answer: 0.574

Question: What about the “combination Emax” value [13] of the same molecule?
Answer: 0.475

Question: And the “combination Emax” value [14]?
Answer: 0.732

Question: And the “combination Emax” value [15]?
Answer: 0.57

Question: What about the “combination Emax” value [16] of the same molecule?
Answer: 0.577

Question: And the “combination Emax” value [17]?
Answer: 0.93

Question: For `Cc1cc2ncnn2cc1Nc1ncc2c(n1)n(C1CCOCC1)c(=O)n2C` [AZD7648] + CCN(CCO)CCCOc1ccc2c(Nc3cc(CC(=O)Nc4cccc(F)c4)[nH]n3)ncnc2c1 [AZD2811] (first compound max 10 µM, 7x7, partner max 1 µM), which “combination Emax” value [1] is on record?
Answer: 0.53

Question: What about the “combination Emax” value [2] of the same molecule?
Answer: 0.254

Question: What about the “combination Emax” value [3] of the same molecule?
Answer: 0.238

Question: What about the “combination Emax” value (HuO-3N1 (Osteosarcoma)) of the same molecule?
Answer: 0.35

Question: And the “combination Emax” value [4]?
Answer: 0.49

Question: And the “combination Emax” value [5]?
Answer: 0.354

Question: And the “combination Emax” value [6]?
Answer: 0.555

Question: And the “combination Emax” value (KYM-1 (Rhabdomyosarcoma))?
Answer: 0.182

Question: What about the “combination Emax” value [7] of the same molecule?
Answer: 0.646

Question: And the “combination Emax” value [8]?
Answer: 0.554

Question: What about the “combination Emax” value (CHL-1 (Melanoma)) of the same molecule?
Answer: 0.308

Question: And the “combination Emax” value [9]?
Answer: 0.605

Question: What about the “combination Emax” value [10] of the same molecule?
Answer: 0.214

Question: And the “combination Emax” value [11]?
Answer: 0.455

Question: What about the “combination Emax” value [12] of the same molecule?
Answer: 0.185

Question: And the “combination Emax” value [13]?
Answer: 0.595

Question: And the “combination Emax” value [14]?
Answer: 0.302

Question: What about the “combination Emax” value [15] of the same molecule?
Answer: 0.466

Question: And the “combination Emax” value [16]?
Answer: 0.28

Question: What about the “combination Emax” value [17] of the same molecule?
Answer: 0.312
